Assay results: patent US20240287138A1, “CYCLIC PEPTIDES FOR INHIBITING TNF RECEPTOR 1 ACTIVITY” (Merck Sharp & Dohme LLC, priority 2023, published 2024)
Numbered stars: 1 amine (or outer) side, 2 acyl side, 3 side chain; on linkers, the order of the positions; unused ones are H or OH. Bridge positions count the residues as written; N and C are the ends. Square brackets hold non-standard residues; d marks the D form. Peptide text beside a SMILES is read from it. * marks the point of attachment. Trp(βS-Me,7-OMe) = COc1cccc2c([C@H](C)[C@H](N)C(=O)O)c[nH]c12; X24 = O=C(O)c1ccc([C@@H](O)[C@H](N[*:1])C(=O)[*:2])cc1; X28 = NC(=O)c1ccc([C@H](O)[C@H](N[*:1])C(=O)[*:2])cc1; Achc(cis-1,4) = O=C([C@H]1CC[C@@H](N[*:1])CC1)[*:2]; Trp(7-CN) = N#Cc1cccc2c(C[C@H](N)C(=O)O)c[nH]c12; Trp(7-Cl) = N[C@@H](Cc1c[nH]c2c(Cl)cccc12)C(=O)O; Phe(3-COOH) = N[C@@H](Cc1cccc(C(=O)O)c1)C(=O)O; Phe(4-CONH2) = NC(=O)c1ccc(C[C@H](N)C(=O)O)cc1; Phe(4-COOH) = N[C@@H](Cc1ccc(C(=O)O)cc1)C(=O)O; 4Pal(3S-Me) = C[C@@H](c1ccncc1)[C@H](N)C(=O)O; Trp(7-aza) = N[C@@H](Cc1c[nH]c2ncccc12)C(=O)O; Phe(4-CH2NH2) = NCc1ccc(C[C@H](N)C(=O)O)cc1; dPro(trans-4-F) = O=C(O)[C@H]1C[C@H](F)CN1; dPro(4S-NH2) = N[C@@H]1CN[C@@H](C(=O)O)C1; Pip(5R-OH) = O=C(O)[C@@H]1CC[C@@H](O)CN1; X1 = O=C([C@@H]1CC[C@H](N[*:1])C1)[*:2]; N(CH2CH2COOH)Gly = O=C(O)CCNCC(=O)O; Pip(4-aza) = O=C(O)[C@@H]1CNCCN1; 4Pal = N[C@@H](Cc1ccncc1)C(=O)O; NMeE = CN[C@@H](CCC(=O)O)C(=O)O; dHyp = O=C(O)[C@H]1C[C@H](O)CN1; Ahp(2) = CCCCC[C@H](N)C(=O)O; Pip = O=C(O)[C@@H]1CCCCN1; αMeS = C[C@](N)(CO)C(=O)O; Carboxymethyl = O=C(O)C*; Nle = CCCC[C@H](N)C(=O)O; Sar = CNCC(=O)O

Legend:
[1] = molecular target: T1, human soluble TNFR1 (sTNFR1) (Homo sapiens, UniProt P19438); assay: Human sTNFR1-peptide displacement assay (LanthaScreen Eu TR-FRET binding assay)
T1 construct: made in house; host or cells: Sf21 (baculovirus)
T1 sequence (P19438 with tags, fused parts or gaps): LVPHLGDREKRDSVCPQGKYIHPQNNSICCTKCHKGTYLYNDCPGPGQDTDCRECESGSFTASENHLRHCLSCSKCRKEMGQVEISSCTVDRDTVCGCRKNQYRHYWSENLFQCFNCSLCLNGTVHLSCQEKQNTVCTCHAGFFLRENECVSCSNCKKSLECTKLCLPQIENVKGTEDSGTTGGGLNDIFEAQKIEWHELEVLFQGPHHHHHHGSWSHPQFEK
How it was run: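 Readout is the 665/615 nm TR-FRET ratio (Eu anti-His donor, streptavidin-Alexa647 acceptor), normalized to DMSO and saturating displacer, fit by Morrison-based five-parameter logistic for Kd^app. His-tagged sTNFR1 (1-211) prebound to 100 nM biotinylated peptide SEQ ID NO.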

[2] = molecular target: T2, human TNFR1 extracellular domain (ECD) protein (Homo sapiens, UniProt P19438); assay: SPR binding affinity to captured human TNFR1 ECD
T2 construct: HRV 3C protease cleavage site (C); 6His (C, cleaved yes); made in house; host or cells: Sf21 insect cells (baculovirus), secreted
T2 sequence (P19438 30-211): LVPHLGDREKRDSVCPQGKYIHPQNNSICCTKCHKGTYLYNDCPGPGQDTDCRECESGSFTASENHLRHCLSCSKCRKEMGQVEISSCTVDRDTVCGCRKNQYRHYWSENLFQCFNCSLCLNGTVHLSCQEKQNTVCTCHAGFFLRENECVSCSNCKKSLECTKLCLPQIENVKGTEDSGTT
How it was run: (§1)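 Peptides are tested against captured biotin-tagged human TNFR1 ECD, with parallel TNFR2 ECD binding to check selectivity. Buffer: 10 mM HEPES pH 7.4, 150 mM NaCl, 3 mM EDTA, 0.05% P20, 2% DMSO.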

human TNFR2 ECD protein = molecular target: T3, human TNFR2 ECD protein (Homo sapiens, UniProt P20333); assay: SPR off-target binding (selectivity) to human TNFR2 ECD
T3 construct: HRV 3C protease cleavage site (C); 6His (C, cleaved yes); made in house; host or cells: Sf21 insect cells (baculovirus), secreted
T3 sequence (P20333 23-257): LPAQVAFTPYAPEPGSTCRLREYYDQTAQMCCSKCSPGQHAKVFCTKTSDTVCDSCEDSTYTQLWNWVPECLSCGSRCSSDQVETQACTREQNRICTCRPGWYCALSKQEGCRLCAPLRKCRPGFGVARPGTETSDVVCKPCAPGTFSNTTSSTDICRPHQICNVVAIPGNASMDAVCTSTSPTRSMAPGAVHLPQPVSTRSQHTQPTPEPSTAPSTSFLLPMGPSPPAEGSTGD
How it was run: as §1

SMILES | Kd [1] [nM] | Kd [2] [nM] | Kd (human TNFR2 ECD protein) [nM] | IC50 [1] [nM]
CCCC[C@@H]1NC(=O)[C@@H]2CC[C@@H](C2)NC(=O)[C@H]([C@@H](C)c2c[nH]c3c(OC)cccc23)NC(=O)CN(C)C(=O)[C@H](Cc2ccc(O)cc2)NC(=O)[C@H](Cc2ccc(C(N)=O)cc2)NC(=O)[C@](C)(CO)NC(=O)[C@H](Cc2c[nH]c3c(Cl)cccc23)NC(=O)[C@H](Cc2ccncc2)NC(=O)[C@H](CC(N)=O)NC(=O)[C@H]2C[C@H](N)CN2C(=O)[C@H](Cc2c[nH]c3ccccc23)NC(=O)[C@@H]2CC[C@@H](O)CN2C(=O)[C@H](Cc2ccncc2)NC1=O [SEQ ID NO. 144] (cyclo([4Pal][Trp(7-Cl)][αMeS][Phe(4-CONH2)]Y[Sar][Trp(βS-Me,7-OMe)][X1][Nle][4Pal][Pip(5R-OH)]W[dPro(4S-NH2)]N)) | 0.07 | 0.1 | > 1000 | –
CCCC[C@@H]1NC(=O)[C@H]2CC[C@H](CC2)NC(=O)[C@H]([C@@H](C)c2c[nH]c3c(OC)cccc23)NC(=O)CN(C)C(=O)[C@H](Cc2ccc(O)cc2)NC(=O)[C@H](Cc2ccc(C(=O)O)cc2)NC(=O)[C@](C)(CO)NC(=O)[C@H](Cc2c[nH]c3c(Cl)cccc23)NC(=O)[C@H](Cc2ccncc2)NC(=O)[C@H](CC(N)=O)NC(=O)[C@H](CCC(=O)O)N(C)C(=O)[C@H](Cc2c[nH]c3ccccc23)NC(=O)[C@H](CO)NC(=O)[C@H](Cc2ccc(CN)cc2)NC1=O [SEQ ID NO. 244] (cyclo([4Pal][Trp(7-Cl)][αMeS][Phe(4-COOH)]Y[Sar][Trp(βS-Me,7-OMe)][Achc(cis-1,4)][Nle][Phe(4-CH2NH2)]SW[NMeE]N)) | 0.96 | 0.09 | > 1000 | 0.49
CCCC[C@@H]1NC(=O)CSC[C@@H](C(N)=O)NC(=O)[C@H]([C@@H](C)c2c[nH]c3c(OC)cccc23)NC(=O)CN(C)C(=O)[C@H](Cc2ccc(O)cc2)NC(=O)[C@H](Cc2ccc(C(=O)O)cc2)NC(=O)[C@](C)(CO)NC(=O)[C@H](Cc2c[nH]c3c(Cl)cccc23)NC(=O)[C@H](Cc2ccncc2)NC(=O)[C@H](CC(N)=O)NC(=O)[C@H](CCC(=O)O)N(C)C(=O)[C@H](Cc2c[nH]c3ncccc23)NC(=O)[C@H](CO)NC(=O)[C@H]([C@@H](C)c2ccncc2)NC1=O [SEQ ID NO. 180] ({CH2CO}-[Nle][4Pal(3S-Me)]S[Trp(7-aza)][NMeE]N[4Pal][Trp(7-Cl)][αMeS][Phe(4-COOH)]Y[Sar][Trp(βS-Me,7-OMe)]C-NH2; thioether N-14) | 0.18 | 0.05 | > 1000 | 0.3
CCCC[C@@H]1NC(=O)[C@@H]2CC[C@@H](C2)NC(=O)[C@H]([C@@H](C)c2c[nH]c3c(OC)cccc23)NC(=O)CN(C)C(=O)[C@H](Cc2cccc(C(=O)O)c2)NC(=O)[C@H](Cc2ccc(C(N)=O)cc2)NC(=O)[C@](C)(CO)NC(=O)[C@H](Cc2c[nH]c3c(Cl)cccc23)NC(=O)[C@H](Cc2ccc(C(=O)O)cc2)NC(=O)[C@H](CC(N)=O)NC(=O)[C@H]2C[C@H](O)CN2C(=O)[C@H](Cc2c[nH]c3ccccc23)NC(=O)[C@@H]2CC[C@@H](O)CN2C(=O)[C@H](Cc2ccncc2)NC1=O [SEQ ID NO. 17] (cyclo([4Pal][Pip(5R-OH)]W[dHyp]N[Phe(4-COOH)][Trp(7-Cl)][αMeS][Phe(4-CONH2)][Phe(3-COOH)][Sar][Trp(βS-Me,7-OMe)][X1][Nle])) | 0.16 | 0.04 | > 1000 | –
CCCC[C@@H]1NC(=O)CSC[C@@H](C(N)=O)NC(=O)[C@H]([C@@H](C)c2c[nH]c3c(OC)cccc23)NC(=O)CN(C)C(=O)[C@H](Cc2ccc(O)cc2)NC(=O)[C@H](Cc2ccc(C(=O)O)cc2)NC(=O)[C@](C)(CO)NC(=O)[C@H](Cc2c[nH]c3c(Cl)cccc23)NC(=O)[C@H](Cc2ccncc2)NC(=O)[C@H](CC(N)=O)NC(=O)CN(CCC(=O)O)C(=O)[C@H](Cc2c[nH]c3ncccc23)NC(=O)[C@@H]2CCCCN2C(=O)[C@H](Cc2ccncc2)NC1=O [SEQ ID NO. 220] ({CH2CO}-[Nle][4Pal][Pip][Trp(7-aza)][N(CH2CH2COOH)Gly]N[4Pal][Trp(7-Cl)][αMeS][Phe(4-COOH)]Y[Sar][Trp(βS-Me,7-OMe)]C-NH2; thioether N-14) | 0.55 | 0.25 | > 1000 | –
CCCC[C@@H]1NC(=O)[C@@H]2CC[C@@H](C2)NC(=O)[C@H]([C@@H](C)c2c[nH]c3c(OC)cccc23)NC(=O)CN(C)C(=O)[C@H]([C@H](O)c2ccc(C(=O)O)cc2)NC(=O)[C@H]([C@@H](O)c2ccc(C(N)=O)cc2)NC(=O)[C@](C)(CO)NC(=O)[C@H](Cc2c[nH]c3c(C#N)cccc23)NC(=O)[C@H](Cc2ccncc2)NC(=O)[C@H](CC(N)=O)NC(=O)[C@H]2C[C@H](O)CN2C(=O)[C@H](Cc2c[nH]c3ccccc23)NC(=O)[C@@H]2CC[C@@H](O)CN2C(=O)[C@H](Cc2ccncc2)NC1=O [SEQ ID NO. 155] (cyclo([4Pal][Trp(7-CN)][αMeS][X28][X24][Sar][Trp(βS-Me,7-OMe)][X1][Nle][4Pal][Pip(5R-OH)]W[dHyp]N)) | 0.1 | 0.02 | > 1000 | –
CCCC[C@@H]1NC(=O)[C@@H]2CC[C@@H](C2)NC(=O)[C@H]([C@@H](C)c2c[nH]c3c(OC)cccc23)NC(=O)CN(C)C(=O)[C@H](Cc2ccc(O)cc2)NC(=O)[C@H](Cc2ccc(C(N)=O)cc2)NC(=O)[C@](C)(CO)NC(=O)[C@H](Cc2c[nH]c3c(Cl)cccc23)NC(=O)[C@H](Cc2ccncc2)NC(=O)[C@H](CC(N)=O)NC(=O)[C@H](CCC(=O)O)N(C)C(=O)[C@H](Cc2c[nH]c3ccccc23)NC(=O)[C@@H]2CC[C@@H](O)CN2C(=O)[C@H](Cc2ccncc2)NC1=O [SEQ ID NO. 163] (cyclo([4Pal][Trp(7-Cl)][αMeS][Phe(4-CONH2)]Y[Sar][Trp(βS-Me,7-OMe)][X1][Nle][4Pal][Pip(5R-OH)]W[NMeE]N)) | 0.05 | 0.05 | > 1000 | –
CCCC[C@@H]1NC(=O)[C@@H]2CC[C@@H](C2)NC(=O)[C@H]([C@@H](C)c2c[nH]c3c(OC)cccc23)NC(=O)CN(C)C(=O)[C@H](Cc2ccc(C(=O)O)cc2)NC(=O)[C@H](Cc2ccc(C(N)=O)cc2)NC(=O)[C@](C)(CO)NC(=O)[C@H](Cc2c[nH]c3c(Cl)cccc23)NC(=O)[C@H](Cc2ccncc2)NC(=O)[C@H](CC(N)=O)NC(=O)[C@H]2C[C@H](F)CN2C(=O)[C@H](Cc2c[nH]c3ccccc23)NC(=O)[C@@H]2CC[C@@H](O)CN2C(=O)[C@H](Cc2ccncc2)NC1=O [SEQ ID NO. 101] (cyclo([4Pal][Trp(7-Cl)][αMeS][Phe(4-CONH2)][Phe(4-COOH)][Sar][Trp(βS-Me,7-OMe)][X1][Nle][4Pal][Pip(5R-OH)]W[dPro(trans-4-F)]N)) | 0.05 | 0.05 | > 1000 | –
CCCCC[C@@H]1NC(=O)[C@@H]2CC[C@@H](C2)NC(=O)[C@H]([C@@H](C)c2c[nH]c3c(OC)cccc23)NC(=O)CN(C)C(=O)[C@H](Cc2ccc(C(N)=O)cc2)NC(=O)[C@H](Cc2ccc(C(N)=O)cc2)NC(=O)[C@](C)(CO)NC(=O)[C@H](Cc2c[nH]c3c(C#N)cccc23)NC(=O)[C@H](Cc2ccc(C(=O)O)cc2)NC(=O)[C@H](CC(N)=O)NC(=O)[C@H]2C[C@H](OCC(=O)O)CN2C(=O)[C@H](Cc2c[nH]c3ccccc23)NC(=O)[C@@H]2CNCCN2C(=O)[C@H](Cc2ccncc2)NC1=O [SEQ ID NO. 140] (cyclo([4Pal][Pip(4-aza)]W[dHyp](Carboxymethyl)N[Phe(4-COOH)][Trp(7-CN)][αMeS][Phe(4-CONH2)][Phe(4-CONH2)][Sar][Trp(βS-Me,7-OMe)][X1][Ahp(2)])) | 0.06 | 0.05 | > 1000 | –
